Several values for one entry are separate records, joined by “and”; a condition that tells them apart may be missing. Equal entries are not always repeated. Structures can show the parent of a compound that is named as a salt.
Tests used:
[1] = DPPH radicals scavenging assay; settings: for IC50: read-out: IC50 DPPH free radicals scavenging
[2] = target: butyrylcholinesterase (Equus caballus, UniProt P81908); assay: Michaelis–Menten kinetics of butyrylcholinesterase inhibition; format: biochemical, equine; settings: Michaelis–Menten / Lineweaver–Burk
[3] = target: α-glucosidase (Saccharomyces cerevisiae, UniProt P53341); assay: Michaelis–Menten kinetics of α-glucosidase inhibition; format: biochemical; settings: Michaelis–Menten / Lineweaver–Burk
[4] = target: acetylcholinesterase (Electrophorus electricus, UniProt O42275); assay: Michaelis–Menten kinetics of acetylcholinesterase inhibition; format: biochemical, electric eel; settings: Michaelis–Menten / Lineweaver–Burk
[5] = target: AChE electric eel (Electrophorus electricus, UniProt O42275); assay: biochemical; settings: for inhibition at 15.62 µg/mL / inhibition at 31.25 µg/mL / inhibition at 62.5 µg/mL / inhibition at 125 µg/mL / inhibition at 250 µg/mL / inhibition at 500 µg/mL / inhibition at 1000 µg/mL: read-out: (%) Inhibition AChE
[6] = target: BChE (lyophilized equine serum) (Equus caballus, UniProt P81908); assay: Butyrylcholinesterase inhibition, Ellman's assay; format: biochemical; settings: for inhibition at 15.62 µg/mL / inhibition at 31.25 µg/mL / inhibition at 62.5 µg/mL / inhibition at 125 µg/mL / inhibition at 250 µg/mL / inhibition at 500 µg/mL / inhibition at 1000 µg/mL: read-out: (%) Inhibition BChE
[7] = ABTS free radicals scavenging assay; settings: for IC50: read-out: IC50 ABTS free radicals scavenging
[8] = target: α-glucosidase from Saccharomyces cerevisiae (Saccharomyces cerevisiae, UniProt P53341); assay: α-Glucosidase inhibition, chromogenic assay; format: biochemical; settings: for inhibition at 15.62 µg/mL / inhibition at 31.25 µg/mL / inhibition at 62.5 µg/mL / inhibition at 125 µg/mL / inhibition at 250 µg/mL / inhibition at 500 µg/mL / inhibition at 1000 µg/mL: read-out: (%) Inhibition α-glucosidase
[9] = Hydrogen peroxide free radicals scavenging assay; settings: read-out: IC50 H2O2 free radicals scavenging

Sequence of AChE electric eel (O42275 24-633): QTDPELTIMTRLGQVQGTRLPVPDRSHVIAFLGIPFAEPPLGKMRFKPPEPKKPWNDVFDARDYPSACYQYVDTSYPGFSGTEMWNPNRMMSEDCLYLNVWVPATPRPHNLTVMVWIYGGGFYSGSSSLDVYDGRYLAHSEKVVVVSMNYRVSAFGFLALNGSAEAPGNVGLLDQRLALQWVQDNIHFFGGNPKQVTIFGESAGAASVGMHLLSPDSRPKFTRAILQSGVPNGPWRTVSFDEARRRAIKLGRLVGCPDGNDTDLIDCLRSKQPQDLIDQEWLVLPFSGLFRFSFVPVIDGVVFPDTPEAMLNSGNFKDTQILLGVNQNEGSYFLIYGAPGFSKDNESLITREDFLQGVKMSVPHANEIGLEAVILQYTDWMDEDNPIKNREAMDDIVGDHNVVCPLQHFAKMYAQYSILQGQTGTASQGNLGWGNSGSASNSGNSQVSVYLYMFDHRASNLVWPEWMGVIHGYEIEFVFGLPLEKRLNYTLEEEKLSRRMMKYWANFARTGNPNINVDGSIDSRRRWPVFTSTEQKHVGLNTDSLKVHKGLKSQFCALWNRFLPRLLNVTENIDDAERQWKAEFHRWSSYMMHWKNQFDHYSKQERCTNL
Sequence of α-glucosidase from Saccharomyces cerevisiae (P53341 whole entry): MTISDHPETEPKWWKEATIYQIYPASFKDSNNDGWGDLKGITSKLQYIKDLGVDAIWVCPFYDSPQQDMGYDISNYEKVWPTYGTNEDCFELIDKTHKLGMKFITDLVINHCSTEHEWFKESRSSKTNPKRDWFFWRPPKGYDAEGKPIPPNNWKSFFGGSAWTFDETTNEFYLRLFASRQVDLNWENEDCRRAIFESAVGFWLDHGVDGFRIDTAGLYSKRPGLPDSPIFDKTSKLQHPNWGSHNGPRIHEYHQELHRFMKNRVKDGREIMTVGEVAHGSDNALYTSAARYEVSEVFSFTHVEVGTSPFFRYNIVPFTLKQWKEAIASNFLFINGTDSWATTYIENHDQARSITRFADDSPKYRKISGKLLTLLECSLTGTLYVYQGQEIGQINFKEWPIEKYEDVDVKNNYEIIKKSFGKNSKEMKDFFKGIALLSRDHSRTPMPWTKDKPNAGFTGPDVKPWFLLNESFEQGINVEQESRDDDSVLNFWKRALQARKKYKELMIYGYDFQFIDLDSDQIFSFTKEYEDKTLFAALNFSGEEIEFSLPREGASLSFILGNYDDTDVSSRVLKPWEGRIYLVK
Sequence of BChE (lyophilized equine serum) (P81908 whole entry): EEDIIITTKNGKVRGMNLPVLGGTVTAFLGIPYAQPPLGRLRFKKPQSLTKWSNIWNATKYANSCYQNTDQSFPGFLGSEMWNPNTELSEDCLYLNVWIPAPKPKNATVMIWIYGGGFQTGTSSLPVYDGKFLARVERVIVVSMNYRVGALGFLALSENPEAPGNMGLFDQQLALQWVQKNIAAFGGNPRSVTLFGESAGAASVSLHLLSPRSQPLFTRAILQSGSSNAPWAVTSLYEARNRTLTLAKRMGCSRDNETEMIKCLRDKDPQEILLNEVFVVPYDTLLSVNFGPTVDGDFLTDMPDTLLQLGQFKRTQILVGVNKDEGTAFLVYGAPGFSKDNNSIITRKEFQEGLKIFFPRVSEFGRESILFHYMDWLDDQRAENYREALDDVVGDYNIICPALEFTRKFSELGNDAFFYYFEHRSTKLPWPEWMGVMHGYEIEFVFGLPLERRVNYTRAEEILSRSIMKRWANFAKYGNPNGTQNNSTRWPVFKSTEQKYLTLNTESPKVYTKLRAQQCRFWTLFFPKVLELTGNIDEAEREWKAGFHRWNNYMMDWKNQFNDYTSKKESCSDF
Sequence of butyrylcholinesterase (P81908 whole entry): as above
Sequence of acetylcholinesterase (O42275 24-633): as the sequence (O42275 24-633) above
Sequence of α-glucosidase (P53341 whole entry): as the sequence (P53341 whole entry) above

For `O=CC1([C@@H]2CC(=O)N(c3ccccc3)C2=O)CCCCC1` [Compound 1, (S)-1-(2,5-dioxo-1-phenylpyrrolidin-3-yl) cyclohexanecarbaldehyde], the “(%) Inhibition DPPH” value ([1]; 15.62 μg/mL) was 28.23 ± 1.71 %, the “(%) Inhibition DPPH” value ([1]; 31.25 μg/mL) was 34.05 ± 1.40 % and the “(%) Inhibition DPPH” value ([1]; 62.5 μg/mL) was 44.66 ± 0.88 %. The “(%) Inhibition DPPH” value ([1]; 125 μg/mL) was 58.50 ± 1.61 %, the “(%) Inhibition DPPH” value ([1]; 250 μg/mL) was 68.40 ± 1.97 % and the “(%) Inhibition DPPH” value ([1]; 500 μg/mL) was 72.83 ± 1.89 %. The “(%) Inhibition DPPH” value ([1]; 1000 μg/mL) was 79.53 ± 1.92 %, the IC50 [1] was 298 µM and the “Vmax, butyrylcholinesterase inhibition” value [2] was 1.553 µg/min. For the same compound, the “Vmax, α-glucosidase” value [3] was 2.360 µg/min, the “Vmax, acetylcholinesterase inhibition” value [4] was 84.93 µg/min and the IC50 [5] was 343 µM. It also gave an inhibition at 15.62 µg/mL [5] of 12.8 ± 1.5%, an inhibition at 31.25 µg/mL [5] of 23.9 ± 0.88% and an inhibition at 62.5 µg/mL [5] of 41.1 ± 0.47%. The inhibition at 125 µg/mL [5] was 57.03 ± 0.35%, the inhibition at 250 µg/mL [5] was 68.6 ± 1.06% and the inhibition at 500 µg/mL [5] was 72.76 ± 0.71%. For the same compound, the inhibition at 1000 µg/mL [5] was 78.42 ± 0.43%, the IC50 [6] was 277 µM and the inhibition at 15.62 µg/mL [6] was 15.4 ± 0.9%. The inhibition at 31.25 µg/mL [6] was 26.1 ± 1.04%, the inhibition at 62.5 µg/mL [6] was 44.6 ± 0.63% and the inhibition at 125 µg/mL [6] was 59.8 ± 1.21%. The inhibition at 250 µg/mL [6] was 69.7 ± 0.91%, the inhibition at 500 µg/mL [6] was 75.76 ± 0.61% and the inhibition at 1000 µg/mL [6] was 81.49 ± 0.6%. The “(%) Inhibition ABTS” value ([7]; 15.62 μg/mL) was 16.60±1.63 %, the “(%) Inhibition ABTS” value ([7]; 31.25 μg/mL) was 26.87±0.85 % and the “(%) Inhibition ABTS” value ([7]; 62.5 μg/mL) was 40.51±0.54 %. For the same compound, the “(%) Inhibition ABTS” value ([7]; 125 μg/mL) was 54.49±0.60 %, the “(%) Inhibition ABTS” value ([7]; 250 μg/mL) was 61.22±1.28 % and the “(%) Inhibition ABTS” value ([7]; 500 μg/mL) was 67.31±0.58 %. For the same compound, the “(%) Inhibition ABTS” value ([7]; 1000 μg/mL) was 79.87±1.27 %, the IC50 [7] was 333 µM and the IC50 [8] was 158 µM. For the same compound, the inhibition at 15.62 µg/mL [8] was 28 ± 0.35%, the inhibition at 31.25 µg/mL [8] was 34.4 ± 0.43% and the inhibition at 62.5 µg/mL [8] was 44.9 ± 1.55%. For the same compound, the inhibition at 125 µg/mL [8] was 58.8 ± 0.71%, the inhibition at 250 µg/mL [8] was 68.8 ± 1.24% and the inhibition at 500 µg/mL [8] was 72.9 ± 0.96%. For the same compound, the inhibition at 1000 µg/mL [8] was 79.6 ± 1.12% and the IC50 [9] was 826 µM.

For `C[C@](C=O)(c1ccccc1)[C@@H]1CC(=O)N(c2ccccc2)C1=O` [Compound 2, (R)-2-((S)-2,5-dioxo-1-phenylpyrrolidin-3-yl)-2-phenylpropanal], the “(%) Inhibition DPPH” value ([1]; 15.62 μg/mL) was 13.70±1.60 %, the “(%) Inhibition DPPH” value ([1]; 31.25 μg/mL) was 23.55 ± 1.85 % and the “(%) Inhibition DPPH” value ([1]; 62.5 μg/mL) was 36.36 ± 0.91 %. The “(%) Inhibition DPPH” value ([1]; 125 μg/mL) was 50.07 ± 0.97 %, the “(%) Inhibition DPPH” value ([1]; 250 μg/mL) was 61.31 ± 1.97 % and the “(%) Inhibition DPPH” value ([1]; 500 μg/mL) was 70.34 ±1.10 %. The “(%) Inhibition DPPH” value ([1]; 1000 μg/mL) was 77.04 ± 1.61 %, the IC50 [1] was 407 µM and the “Vmax, butyrylcholinesterase inhibition” value [2] was 2.867 µg/min. For the same compound, the “Vmax, α-glucosidase” value [3] was 3.542 µg/min, the “Vmax, acetylcholinesterase inhibition” value [4] was 78.65 µg/min and the IC50 [5] was 423 µM. The inhibition at 15.62 µg/mL [5] was 21.3 ± 0.87%, the inhibition at 31.25 µg/mL [5] was 27.2 ± 0.47% and the inhibition at 62.5 µg/mL [5] was 39.1 ± 0.54%. It also gave an inhibition at 125 µg/mL [5] of 48 ± 0.3%, an inhibition at 250 µg/mL [5] of 59.9 ± 0.6% and an inhibition at 500 µg/mL [5] of 70.5 ± 0.9%. It also gave an inhibition at 1000 µg/mL [5] of 77.23 ± 0.22%, an IC50 [6] of 358 µM and an inhibition at 15.62 µg/mL [6] of 23.4 ± 0.82%. The inhibition at 31.25 µg/mL [6] was 31.2 ± 0.47%, the inhibition at 62.5 µg/mL [6] was 42 ± 0.97% and the inhibition at 125 µg/mL [6] was 51.9 ± 0.45%. The inhibition at 250 µg/mL [6] was 62.12 ± 0.54%, the inhibition at 500 µg/mL [6] was 72.54 ± 0.6% and the inhibition at 1000 µg/mL [6] was 79 ± 1.03%. For the same compound, the “(%) Inhibition ABTS” value ([7]; 15.62 μg/mL) was 12.33±1.67 %, the “(%) Inhibition ABTS” value ([7]; 31.25 μg/mL) was 22.83±1.21 % and the “(%) Inhibition ABTS” value ([7]; 62.5 μg/mL) was 38.10±0.90 %. The “(%) Inhibition ABTS” value ([7]; 125 μg/mL) was 49.31±0.58 %, the “(%) Inhibition ABTS” value ([7]; 250 μg/mL) was 59.87±0.85 % and the “(%) Inhibition ABTS” value ([7]; 500 μg/mL) was 68.51±0.54 %. The “(%) Inhibition ABTS” value ([7]; 1000 μg/mL) was 75.76±0.61 %, the IC50 [7] was 498 µM and the IC50 [8] was 472 µM. The inhibition at 15.62 µg/mL [8] was 28.8 ± 1.5%, the inhibition at 31.25 µg/mL [8] was 34 ± 0.35% and the inhibition at 62.5 µg/mL [8] was 41.9 ± 0.96%. It also gave an inhibition at 125 µg/mL [8] of 47.8 ± 1.5%, an inhibition at 250 µg/mL [8] of 55.8 ± 0.71% and an inhibition at 500 µg/mL [8] of 65.08 ± 0.47%. For the same compound, the inhibition at 1000 µg/mL [8] was 71.8 ± 1.24%.

With `COc1ccc2c3c1O[C@H]1C[C@@H](O)C=C[C@@]31CCN(C)C2` [Galanthamine (Std.), galanthamine hydrobromide, reference compound] the “Vmax, butyrylcholinesterase inhibition” value ([2]; listed as galantamine) was 2.566 µg/min and 2.641 µg/min, the inhibition at 15.62 µg/mL [6] was 49.7 ± 0.68% and the inhibition at 31.25 µg/mL [6] was 59.33 ± 0.49%. The inhibition at 62.5 µg/mL [6] was 69.03 ± 0.23%, the inhibition at 125 µg/mL [6] was 73.23 ± 0.4% and the inhibition at 250 µg/mL [6] was 80.74 ± 0.68%. The inhibition at 500 µg/mL [6] was 86.9 ± 0.48% and the inhibition at 1000 µg/mL [6] was 93.9 ± 0.96%.
